Data on 37 compounds can be found in ChEMBL document CHEMBL3875166, “Synthesis and biological evaluation of new 6-hydroxypyridazinone benzisoxazoles: Potential multi-receptor-targeting atypical antipsychotics” (Eur J Med Chem, 2016).

The target in assay [1] is 5-hydroxytryptamine receptor 2A (Rattus norvegicus, UniProt P14842). The assay is described as follows: Displacement of [3H] ketanserin from 5-HT2A receptor in Sprague-Dawley rat cerebral cortex incubated for 30 mins by liquid scintillation counting analysis. A general note: Displacement assays read how much labelled ligand stays bound in the presence of the test substance.
Sequence of 5-hydroxytryptamine receptor 2A (P14842 whole entry): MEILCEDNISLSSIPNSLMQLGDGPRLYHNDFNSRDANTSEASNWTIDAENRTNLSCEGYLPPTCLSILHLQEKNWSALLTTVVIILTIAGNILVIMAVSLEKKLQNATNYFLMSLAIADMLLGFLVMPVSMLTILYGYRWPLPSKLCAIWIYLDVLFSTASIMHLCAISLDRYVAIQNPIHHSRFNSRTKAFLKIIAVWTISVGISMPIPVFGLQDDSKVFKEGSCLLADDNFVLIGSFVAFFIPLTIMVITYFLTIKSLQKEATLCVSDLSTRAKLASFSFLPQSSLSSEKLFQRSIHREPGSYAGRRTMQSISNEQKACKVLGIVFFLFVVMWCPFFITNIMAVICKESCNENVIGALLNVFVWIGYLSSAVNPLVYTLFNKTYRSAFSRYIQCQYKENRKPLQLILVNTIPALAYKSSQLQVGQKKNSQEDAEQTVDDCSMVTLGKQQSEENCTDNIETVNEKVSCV

In a further assay the target is D(2) dopamine receptor (Rattus norvegicus, UniProt P61169). The assay is described as follows: Displacement of [3H]spiperone from dopamine D2 receptor in Sprague-Dawley rat striatum incubated for 30 mins by liquid scintillation counting analysis.
Sequence of D(2) dopamine receptor (P61169 whole entry): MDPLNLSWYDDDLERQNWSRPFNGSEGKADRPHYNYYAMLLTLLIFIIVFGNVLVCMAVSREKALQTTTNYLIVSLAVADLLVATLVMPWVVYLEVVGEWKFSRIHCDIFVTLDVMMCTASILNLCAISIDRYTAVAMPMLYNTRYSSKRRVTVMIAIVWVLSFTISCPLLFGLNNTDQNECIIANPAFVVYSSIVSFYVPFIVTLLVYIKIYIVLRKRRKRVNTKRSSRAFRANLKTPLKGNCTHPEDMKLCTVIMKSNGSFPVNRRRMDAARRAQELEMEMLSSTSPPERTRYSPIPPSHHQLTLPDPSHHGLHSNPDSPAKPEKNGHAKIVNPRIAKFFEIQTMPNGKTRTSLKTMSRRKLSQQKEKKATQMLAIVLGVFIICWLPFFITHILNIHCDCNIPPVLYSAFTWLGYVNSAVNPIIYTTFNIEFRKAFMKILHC
The target in assay [2] is T1, 5-hydroxytryptamine receptor 1A (Rattus norvegicus, UniProt P19327).
T1 sequence (P19327 whole entry): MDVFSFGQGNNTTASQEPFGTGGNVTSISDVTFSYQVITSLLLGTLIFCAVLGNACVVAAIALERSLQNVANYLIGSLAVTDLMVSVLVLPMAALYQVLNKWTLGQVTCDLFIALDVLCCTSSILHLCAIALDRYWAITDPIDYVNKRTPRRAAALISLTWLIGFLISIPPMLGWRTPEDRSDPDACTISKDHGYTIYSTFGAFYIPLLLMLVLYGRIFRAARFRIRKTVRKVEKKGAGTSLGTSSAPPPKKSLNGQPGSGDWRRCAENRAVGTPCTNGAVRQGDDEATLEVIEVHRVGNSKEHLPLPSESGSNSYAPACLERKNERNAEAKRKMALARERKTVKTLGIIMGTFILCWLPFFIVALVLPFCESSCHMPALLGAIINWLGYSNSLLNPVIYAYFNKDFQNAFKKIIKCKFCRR
The assay is described as follows: Displacement of [3H]8-OH-DPAT from 5-HT1A receptor in Sprague-Dawley rat cerebral cortex incubated for 30 mins by liquid scintillation counting analysis.

Bounds are passed on as bounds.

By Ki is commonly meant a measure of affinity in units of concentration, obtained from inhibition or displacement. A higher Ki goes with lower affinity. As for `O=c1ccc(OCCCN2CCC(c3noc4cc(F)ccc34)CC2)nn1-c1ccc(Cl)c(Cl)c1`, the Ki in assay [1] was determined as 21.7 nM; on D(2) dopamine receptor it was 7.8 nM; in assay [2], 25 nM.

With `COc1ccc(N2CCN(CCCOc3ccc(=O)n(-c4ccc(Cl)c(Cl)c4)n3)CC2)cc1`, the Ki in assay [1] is 543 nM; at D(2) dopamine receptor, 845 nM; in assay [2], 57.3 nM.

Take `O=c1ccc(OCCCN2CCC(c3noc4cc(F)ccc34)CC2)nn1-c1ccc(F)cc1`: the results for the Ki (in assay [1]; at D(2) dopamine receptor; in assay [2]) were 25.9 nM, 10.8 nM and 52.8 nM, respectively.

On to `Cc1c(OCCCN2CCC(c3noc4cc(F)ccc34)CC2)nn(-c2ccc(Cl)c(Cl)c2)c(=O)c1C`, for which the values for the Ki (in assay [1]; on D(2) dopamine receptor; in assay [2]) were 91.3 nM, 38.3 nM and 121 nM, respectively.

As for `O=c1ccc(OCCCN2CCN(c3cccc(C(F)(F)F)c3)CC2)nn1-c1ccc(Cl)c(Cl)c1`, the inhibition constant (Ki) is 99.2 nM in assay [1], 916 nM on D(2) dopamine receptor and 103 nM in assay [2].

On to `O=c1ccc(OCCCN2CCN(c3ccccc3F)CC2)nn1-c1ccc(Cl)c(Cl)c1`, for which the Ki was found to be 69.5 nM in assay [1], 1200 nM at D(2) dopamine receptor and 56.5 nM in assay [2].

Regarding `O=c1c2c(c(OCCCN3CCC(c4noc5cc(F)ccc45)CC3)nn1-c1ccc(Cl)c(Cl)c1)CCCC2`, the Ki in assay [1] is 89.6 nM; on D(2) dopamine receptor, 41.8 nM; in assay [2], 224 nM.

As to `O=c1ccc(OCCCCN2CCC(c3noc4cc(F)ccc34)CC2)nn1-c1ccc(Cl)c(Cl)c1`, the Ki in assay [1] stood at 34.7 nM; on D(2) dopamine receptor, 26.7 nM; in assay [2], 117 nM.

For the compound `O=c1ccc(OCCCN2CCN(c3csc4ccccc34)CC2)nn1-c1ccc(Cl)c(Cl)c1`, the values for the Ki (in assay [1]; at D(2) dopamine receptor; in assay [2]) were 81.2 nM, 648 nM and 984 nM, respectively.

As to `O=c1ccc(OCCCN2CCN(c3ccccc3)CC2)nn1-c1ccc(Cl)c(Cl)c1`, the Ki was 359 nM in assay [1], 1320 nM on D(2) dopamine receptor and 48.1 nM in assay [2].

For `NC(=O)c1ccc2occ(N3CCN(CCCOc4ccc(=O)n(-c5ccc(Cl)c(Cl)c5)n4)CC3)c2c1`, the Ki in assay [1] was 605 nM; at D(2) dopamine receptor, 379 nM; in assay [2] it was 64.8 nM.

On to `O=c1ccc(OCCCN2CCC(c3noc4cc(F)ccc34)CC2)nn1-c1ccc(F)c(F)c1`, for which the Ki in assay [1] came out at 3.2 nM; on D(2) dopamine receptor, 38.5 nM; in assay [2], 43.5 nM.

As to `O=c1ccc(OCCCN2CCN(c3ccccc3Cl)CC2)nn1-c1ccc(Cl)c(Cl)c1`, the values for the Ki (in assay [1]; on D(2) dopamine receptor; in assay [2]) were 120 nM, 808 nM and 1110 nM, respectively.

As for `O=c1ccc(OCCCN2CCC(c3c[nH]c4ccccc34)CC2)nn1-c1ccc(Cl)c(Cl)c1`, the results for the Ki (in assay [1]; at D(2) dopamine receptor; in assay [2]) were 74.5 nM, 499 nM and 1250 nM, respectively.

For the compound `O=c1ccc(OCCCN2CCC(c3nc4ccccc4s3)CC2)nn1-c1ccc(Cl)c(Cl)c1`, the Ki in assay [1] is 107 nM; at D(2) dopamine receptor it was over 10000 nM; in assay [2], over 10000 nM.

As for `O=c1ccc(OCCCN2CCC(c3noc4cc(F)ccc34)CC2)nn1-c1cc(Cl)cc(Cl)c1`, the Ki in assay [1] turned out to be 9.3 nM; at D(2) dopamine receptor, 38.1 nM; in assay [2], 129 nM.

Turning to `O=c1ccc(OCCCN2CCC(c3noc4cc(F)ccc34)CC2)nn1-c1ccccc1Cl`, the Ki was determined as 10.3 nM in assay [1], 38.5 nM at D(2) dopamine receptor and 78 nM in assay [2].

For `O=c1ccc(OCCCN2CCN(c3ccc(F)cc3)CC2)nn1-c1ccc(Cl)c(Cl)c1`, the Ki in assay [1] was 64.5 nM; at D(2) dopamine receptor it was 953 nM; in assay [2], 55.4 nM.

As to `O=c1ccc(OCCCN2CCC(c3noc4cc(F)ccc34)CC2)nn1-c1ccc(Cl)cc1Cl`, the Ki is 0.4 nM in assay [1], 0.4 nM on D(2) dopamine receptor and 191 nM in assay [2].

`O=c1ccc(OCCCN2CCN(c3nsc4ccccc34)CC2)nn1-c1ccc(Cl)c(Cl)c1`: the Ki in assay [1] came to 75.1 nM; on D(2) dopamine receptor, 595 nM; in assay [2] it was 898 nM.

Take `O=c1ccc(OCCCN2CCN(Cc3ccccc3)CC2)nn1-c1ccc(Cl)c(Cl)c1`: the Ki in assay [1] is 595 nM; at D(2) dopamine receptor, over 10000 nM; in assay [2] it was 213 nM.

For the compound `O=c1ccc(OCCCN2CCC(c3noc4cc(F)ccc34)CC2)nn1-c1ccc(F)cc1F`, the Ki in assay [1] was determined as 0.5 nM; on D(2) dopamine receptor it was 174 nM; in assay [2], 88.4 nM.

On to `O=c1ccc(OCCCN2CCN(c3ccccn3)CC2)nn1-c1ccc(Cl)c(Cl)c1`, for which the results for the Ki (in assay [1]; at D(2) dopamine receptor; in assay [2]) were 143 nM, over 10000 nM and 157 nM, respectively.

In the case of `COc1ccccc1N1CCN(CCCOc2ccc(=O)n(-c3ccc(Cl)c(Cl)c3)n2)CC1`, the Ki in assay [1] was determined as 242 nM; on D(2) dopamine receptor it was 524 nM; in assay [2] it was 56.2 nM.

In the case of `O=c1ccc(OCCCN2CCC(c3noc4cc(F)ccc34)CC2)nn1-c1ccc2ccccc2c1`, the inhibition constant Ki is 21.3 nM in assay [1], 16.2 nM at D(2) dopamine receptor and 15.9 nM in assay [2].

Take `O=c1c2ccccc2c(OCCCN2CCC(c3noc4cc(F)ccc34)CC2)nn1-c1ccc(Cl)c(Cl)c1`: the values for the Ki (in assay [1]; at D(2) dopamine receptor; in assay [2]) were 83.9 nM, 43.7 nM and 333 nM, respectively.

With `O=C(c1ccc(F)cc1)C1CCN(CCCOc2ccc(=O)n(-c3ccc(Cl)c(Cl)c3)n2)CC1`, the Ki in assay [1] came to 13.8 nM; on D(2) dopamine receptor it was 179 nM.

Take `O=c1ccc(OCCCN2CCN(c3cccc(Cl)c3Cl)CC2)nn1-c1ccc(Cl)c(Cl)c1`: the inhibitory constant (Ki) in assay [1] amounted to 627 nM; on D(2) dopamine receptor, 777 nM; in assay [2], 624 nM.

As for `O=c1ccc(OCCCN2CCC(c3noc4cc(F)ccc34)CC2)nn1-c1ccccc1`, the figures for the Ki (in assay [1]; at D(2) dopamine receptor; in assay [2]) were 131 nM, 45.5 nM and 61.3 nM, respectively.

As for `O=c1ccc(OCCCN2CCC(c3noc4cc(F)ccc34)CC2)nn1-c1ccc(F)c(Cl)c1`, the results for the Ki (in assay [1]; at D(2) dopamine receptor; in assay [2]) were 12.3 nM, 45.3 nM and 89 nM, respectively.

Consider `O=c1ccc(OCCCCCN2CCC(c3noc4cc(F)ccc34)CC2)nn1-c1ccc(Cl)c(Cl)c1`, for which the results for the Ki (in assay [1]; at D(2) dopamine receptor; in assay [2]) were 25.3 nM, 40.3 nM and 326 nM, respectively.

On to `O=c1ccc(OCCCN2CCC(c3noc4cc(F)ccc34)CC2)nn1-c1cccc(Cl)c1`, for which the Ki in assay [1] was determined as 6 nM; at D(2) dopamine receptor, 41.1 nM; in assay [2] it was 183 nM.

Turning to `Cc1cccc(N2CCN(CCCOc3ccc(=O)n(-c4ccc(Cl)c(Cl)c4)n3)CC2)c1C`, the Ki was 81.2 nM in assay [1], over 10000 nM at D(2) dopamine receptor and 5530 nM in assay [2].

On to `O=c1ccc(OCCCN2CCC(c3noc4cc(F)ccc34)CC2)nn1-c1ccc(Cl)cc1`, for which the Ki amounted to 12.3 nM in assay [1], 28.1 nM on D(2) dopamine receptor and 89 nM in assay [2].

Turning to `Cc1ccc(-n2nc(OCCCN3CCC(c4noc5cc(F)ccc45)CC3)ccc2=O)cc1`, the results for the Ki (in assay [1]; on D(2) dopamine receptor; in assay [2]) were 55.4 nM, 33.1 nM and 34.2 nM, respectively.

Take `O=c1ccc(OCCCN2CCC(c3noc4cc(F)ccc34)CC2)nn1-c1cc(F)cc(F)c1`: the Ki in assay [1] turned out to be 2.3 nM; on D(2) dopamine receptor, 35.4 nM; in assay [2], 38.1 nM.

For the compound `O=c1ccc(OCCCN2CCN(c3ncccn3)CC2)nn1-c1ccc(Cl)c(Cl)c1`, the Ki in assay [1] is 1140 nM; at D(2) dopamine receptor, 914 nM; in assay [2], 167 nM.
